Legend:
[1] = target: T1, Protein kinase C zeta type (Homo sapiens) (UniProt Q05513); experiment: Inhibition of human recombinant PKCz at 40 nM related to control ULK1
T1 sequence (whole entry): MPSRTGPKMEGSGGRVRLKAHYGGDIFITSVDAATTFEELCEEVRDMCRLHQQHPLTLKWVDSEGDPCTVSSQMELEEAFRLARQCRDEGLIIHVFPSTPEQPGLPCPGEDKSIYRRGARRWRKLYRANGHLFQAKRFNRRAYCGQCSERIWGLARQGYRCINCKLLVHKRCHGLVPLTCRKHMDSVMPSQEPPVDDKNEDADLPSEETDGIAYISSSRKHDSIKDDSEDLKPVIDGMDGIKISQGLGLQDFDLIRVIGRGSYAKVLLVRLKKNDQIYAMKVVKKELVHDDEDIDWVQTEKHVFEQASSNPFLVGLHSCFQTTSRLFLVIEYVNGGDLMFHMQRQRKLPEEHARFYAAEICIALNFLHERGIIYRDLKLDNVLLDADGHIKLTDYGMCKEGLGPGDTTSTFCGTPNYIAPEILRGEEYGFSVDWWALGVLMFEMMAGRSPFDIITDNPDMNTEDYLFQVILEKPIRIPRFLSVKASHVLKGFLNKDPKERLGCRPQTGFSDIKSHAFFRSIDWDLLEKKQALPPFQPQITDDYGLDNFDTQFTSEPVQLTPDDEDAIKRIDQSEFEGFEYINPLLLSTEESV

[2] = target: Serine/threonine-protein kinase MRCK beta (Homo sapiens) (UniProt Q9Y5S2); experiment: Inhibition of human recombinant MRCKb at 500 nM in presence of ATP by radiometric assay relative to control
Serine/threonine-protein kinase MRCK beta (Homo sapiens), sequence (Q9Y5S2 whole entry): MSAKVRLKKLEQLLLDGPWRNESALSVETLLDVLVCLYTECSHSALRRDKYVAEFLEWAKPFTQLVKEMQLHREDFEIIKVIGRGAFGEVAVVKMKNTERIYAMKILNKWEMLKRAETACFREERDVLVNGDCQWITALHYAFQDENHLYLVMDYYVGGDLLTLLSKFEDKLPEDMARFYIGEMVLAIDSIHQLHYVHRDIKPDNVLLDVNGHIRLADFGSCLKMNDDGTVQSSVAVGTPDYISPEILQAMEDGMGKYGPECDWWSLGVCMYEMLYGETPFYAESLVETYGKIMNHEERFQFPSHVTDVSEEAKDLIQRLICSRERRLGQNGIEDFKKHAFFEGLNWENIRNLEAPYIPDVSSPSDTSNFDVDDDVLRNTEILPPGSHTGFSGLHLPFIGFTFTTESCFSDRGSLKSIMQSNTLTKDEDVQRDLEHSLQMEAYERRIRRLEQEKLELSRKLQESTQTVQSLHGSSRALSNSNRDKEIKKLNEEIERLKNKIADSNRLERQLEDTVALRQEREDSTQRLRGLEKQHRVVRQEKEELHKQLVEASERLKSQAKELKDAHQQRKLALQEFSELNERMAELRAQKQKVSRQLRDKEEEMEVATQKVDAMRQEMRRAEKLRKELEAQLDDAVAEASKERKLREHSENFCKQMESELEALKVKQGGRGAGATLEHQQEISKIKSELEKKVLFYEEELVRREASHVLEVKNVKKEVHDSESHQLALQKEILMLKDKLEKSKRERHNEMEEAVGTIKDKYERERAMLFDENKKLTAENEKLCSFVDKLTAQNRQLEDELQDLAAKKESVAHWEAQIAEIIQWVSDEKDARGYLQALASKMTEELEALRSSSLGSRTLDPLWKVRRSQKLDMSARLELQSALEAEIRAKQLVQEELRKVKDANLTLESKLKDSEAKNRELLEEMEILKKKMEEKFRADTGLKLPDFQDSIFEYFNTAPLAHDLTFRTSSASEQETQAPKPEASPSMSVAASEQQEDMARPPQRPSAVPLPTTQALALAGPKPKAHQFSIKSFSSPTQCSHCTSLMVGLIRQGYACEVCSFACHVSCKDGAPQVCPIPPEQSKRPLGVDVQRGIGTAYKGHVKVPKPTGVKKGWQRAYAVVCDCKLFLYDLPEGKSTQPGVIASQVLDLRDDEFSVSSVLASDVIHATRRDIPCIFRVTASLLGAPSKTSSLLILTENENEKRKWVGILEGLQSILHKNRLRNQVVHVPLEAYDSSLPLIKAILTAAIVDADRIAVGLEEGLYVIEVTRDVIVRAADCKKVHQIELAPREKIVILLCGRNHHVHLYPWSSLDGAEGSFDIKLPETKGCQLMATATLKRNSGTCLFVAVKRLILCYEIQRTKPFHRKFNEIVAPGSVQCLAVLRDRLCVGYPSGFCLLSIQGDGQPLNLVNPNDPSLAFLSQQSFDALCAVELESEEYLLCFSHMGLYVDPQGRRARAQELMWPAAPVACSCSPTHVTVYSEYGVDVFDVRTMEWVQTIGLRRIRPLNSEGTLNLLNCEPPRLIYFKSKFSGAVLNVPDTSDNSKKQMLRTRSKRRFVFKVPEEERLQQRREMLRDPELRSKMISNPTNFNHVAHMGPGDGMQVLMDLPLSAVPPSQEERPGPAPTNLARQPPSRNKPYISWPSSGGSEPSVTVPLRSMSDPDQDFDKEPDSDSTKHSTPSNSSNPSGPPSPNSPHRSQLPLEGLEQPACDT

[3] = target: Serine/threonine-protein kinase PLK1 (Homo sapiens) (UniProt P53350); experiment: Inhibition of human recombinant PLK1 at 500 nM related to control ULK1
Serine/threonine-protein kinase PLK1 (Homo sapiens), sequence (P53350 whole entry): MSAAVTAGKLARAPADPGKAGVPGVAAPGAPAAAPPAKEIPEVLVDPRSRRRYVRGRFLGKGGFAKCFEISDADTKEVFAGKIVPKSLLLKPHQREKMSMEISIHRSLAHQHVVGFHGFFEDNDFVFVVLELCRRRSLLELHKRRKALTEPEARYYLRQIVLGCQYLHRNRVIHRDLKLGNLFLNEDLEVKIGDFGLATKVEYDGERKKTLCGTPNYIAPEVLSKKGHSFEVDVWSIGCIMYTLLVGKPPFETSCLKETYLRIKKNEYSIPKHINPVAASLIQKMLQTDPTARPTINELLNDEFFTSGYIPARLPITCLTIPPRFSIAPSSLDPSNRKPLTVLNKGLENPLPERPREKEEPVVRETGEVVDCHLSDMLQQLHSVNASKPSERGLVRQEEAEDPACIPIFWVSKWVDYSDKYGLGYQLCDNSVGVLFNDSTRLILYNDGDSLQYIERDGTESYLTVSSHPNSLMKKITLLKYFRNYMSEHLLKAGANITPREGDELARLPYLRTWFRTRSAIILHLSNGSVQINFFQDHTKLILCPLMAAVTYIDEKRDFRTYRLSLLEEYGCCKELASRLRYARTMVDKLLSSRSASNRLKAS

[4] = target: T2, Ephrin type-A receptor 1 (Homo sapiens) (UniProt P21709); experiment: Inhibition of human recombinant EphA1 at 15 nM in presence of ATP by radiometric assay relative to control
T2 sequence (whole entry): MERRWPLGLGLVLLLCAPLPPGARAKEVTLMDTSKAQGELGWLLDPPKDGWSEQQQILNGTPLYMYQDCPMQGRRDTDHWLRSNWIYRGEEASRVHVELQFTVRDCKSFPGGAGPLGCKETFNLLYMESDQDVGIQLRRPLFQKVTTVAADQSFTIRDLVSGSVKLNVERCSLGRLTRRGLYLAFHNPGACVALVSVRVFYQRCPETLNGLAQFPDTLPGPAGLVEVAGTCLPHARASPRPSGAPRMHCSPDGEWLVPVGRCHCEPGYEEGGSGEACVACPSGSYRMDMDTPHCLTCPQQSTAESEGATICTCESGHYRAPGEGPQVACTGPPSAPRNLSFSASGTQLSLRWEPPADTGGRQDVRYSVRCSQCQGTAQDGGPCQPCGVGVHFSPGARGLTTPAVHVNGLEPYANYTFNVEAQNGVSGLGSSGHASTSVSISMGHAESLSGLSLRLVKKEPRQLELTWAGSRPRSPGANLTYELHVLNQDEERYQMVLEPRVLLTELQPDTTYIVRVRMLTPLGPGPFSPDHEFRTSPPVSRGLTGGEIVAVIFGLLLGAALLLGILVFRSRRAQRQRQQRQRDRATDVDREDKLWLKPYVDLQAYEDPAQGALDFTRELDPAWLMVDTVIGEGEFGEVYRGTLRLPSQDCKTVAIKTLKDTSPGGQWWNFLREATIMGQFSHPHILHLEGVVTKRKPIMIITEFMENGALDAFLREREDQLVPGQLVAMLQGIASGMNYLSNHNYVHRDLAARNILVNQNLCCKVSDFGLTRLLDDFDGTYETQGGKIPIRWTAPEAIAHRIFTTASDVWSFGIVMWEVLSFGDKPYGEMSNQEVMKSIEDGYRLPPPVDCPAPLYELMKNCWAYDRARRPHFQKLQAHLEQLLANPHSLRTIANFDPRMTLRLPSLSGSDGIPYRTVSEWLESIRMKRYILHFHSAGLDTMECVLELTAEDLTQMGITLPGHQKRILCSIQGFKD

[5] = target: Protein-tyrosine kinase 6 (Homo sapiens) (UniProt Q13882); experiment: Inhibition of human recombinant BRK at 15 nM related to control ULK1
Protein-tyrosine kinase 6 (Homo sapiens), sequence (Q13882 whole entry, looked up): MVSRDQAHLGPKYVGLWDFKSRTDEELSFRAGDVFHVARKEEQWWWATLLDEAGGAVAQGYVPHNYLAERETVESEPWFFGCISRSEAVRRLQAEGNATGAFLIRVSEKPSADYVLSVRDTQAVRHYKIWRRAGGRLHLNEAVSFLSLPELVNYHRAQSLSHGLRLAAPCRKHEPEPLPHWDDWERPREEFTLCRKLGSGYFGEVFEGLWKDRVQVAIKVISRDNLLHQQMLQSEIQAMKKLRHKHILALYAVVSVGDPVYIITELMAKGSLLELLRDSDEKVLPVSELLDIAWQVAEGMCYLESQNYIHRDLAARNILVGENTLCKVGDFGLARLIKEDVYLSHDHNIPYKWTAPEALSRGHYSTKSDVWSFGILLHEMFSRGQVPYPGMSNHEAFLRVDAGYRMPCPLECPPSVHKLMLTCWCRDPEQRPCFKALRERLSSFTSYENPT

[6] = target: Casein kinase II subunit alpha' (Homo sapiens) (UniProt P19784); experiment: Inhibition of human recombinant CK2a2 at 15 nM related to control ULK1
Casein kinase II subunit alpha' (Homo sapiens), sequence (P19784 whole entry, looked up): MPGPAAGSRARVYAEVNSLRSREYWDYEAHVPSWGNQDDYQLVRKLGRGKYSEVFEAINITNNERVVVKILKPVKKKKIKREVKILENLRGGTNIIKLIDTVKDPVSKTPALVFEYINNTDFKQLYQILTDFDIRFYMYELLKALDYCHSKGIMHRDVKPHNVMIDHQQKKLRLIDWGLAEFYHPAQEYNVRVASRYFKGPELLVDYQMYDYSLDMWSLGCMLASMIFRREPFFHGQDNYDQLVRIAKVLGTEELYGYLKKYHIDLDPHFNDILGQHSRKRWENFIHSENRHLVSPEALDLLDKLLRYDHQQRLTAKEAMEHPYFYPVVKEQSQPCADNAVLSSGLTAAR

Work on `O=C(N[C@@H](C1CC1)C(F)(F)F)c1cc(-c2cnn3cc(-c4ccc(F)cc4)cnc23)cs1` yielded a fold change (FC) [1] of 0.
For `CNC(=O)c1ccccc1Oc1nc(Nc2cc(OC)c(OC)c(OC)c2)ncc1Br`, the inhibition [2] was 0% and the fold change (FC) [3] was 0.
`CC(C)[C@H](NC(=O)c1cc(-c2cnn3cc(-c4ccc(OCCN5CCCCC5)cc4)cnc23)cs1)C(F)(F)F` showed an inhibition [4] of 0%, a fold change (FC) [5] of 0.09 and a fold change (FC) [6] of 0.06.

Source: ChEMBL document CHEMBL5653631, “A Potent and Selective ULK1 Inhibitor Suppresses Autophagy and Sensitizes Cancer Cells to Nutrient Stress” (iScience, 2018)
